Data published in the NIST ThermoML archive (doi:10.1016/j.jct.2009.05.010).
“And” between values parts separate entries of the source, which are not always exact repeats. Equal entries are not always repeated.

Conditions: Crystal, Calculated from knudsen effusion weight loss

O=[N+]([O-])c1cc(Br)ccc1Br [1,4-dibromo-2-nitrobenzene]
Conditions	vapor or sublimation pressure
302.14 K	9.9e-05 kPa and 9.7e-05 kPa
304.16 K	0.000121 kPa and 0.000125 kPa and 0.000123 kPa
306.15 K	0.000167 kPa and 0.000166 kPa and 0.000163 kPa
308.15 K	0.000204 kPa and 0.000205 kPa and 0.000203 kPa
310.14 K	0.00026 kPa and 0.000264 kPa and 0.000261 kPa
312.14 K	0.000327 kPa and 0.000332 kPa and 0.000329 kPa
314.14 K	0.000418 kPa and 0.000419 kPa
316.14 K	0.000522 kPa and 0.000527 kPa and 0.000524 kPa
318.15 K	0.000666 kPa and 0.000675 kPa and 0.000673 kPa
320.15 K	0.000884 kPa and 0.000858 kPa and 0.000838 kPa
322.14 K	0.001072 kPa and 0.001068 kPa and 0.001063 kPa
